From US10076519B2 (CYTOKINETICS, INC., priority 2010, dated 2018) come the findings set out here.

The test system of the first experiment is rabbit skeletal myofibrils (fast skeletal myofibrils). Kind of experiment: Activation of fast skeletal myofibrils (PUMA assay, PK/LDH-coupled ATPase at pCa25). The format is biochemical. The following applies: AC1.4 determined according to the procedure of Example 39; reported as class symbols. In outline: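 Detergent-washed rabbit psoas myofibrils (~90% fast fibres, calcium-regulated) assayed at calcium giving 25% of maximal ATPase rate (pCa25). ADP turnover coupled via pyruvate kinase/lactate dehydrogenase to NADH oxidation, read at 340 nm. Buffer 12 mM PIPES, 2 mM MgCl2, 1 mM DTT, pH 6.8; AC1.4 values derived.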
Turning to `NC(=O)c1cccc(-c2ccc(NCCc3ccccc3)nn2)c1` [3-{6-[(2-phenylethyl)amino]pyridazin-3-yl}benzamide], the “Mean AC1.4” value is given as “D (D=>20 uM)”.

With `Cc1nc2cc(-c3ccc(NCC(C)(C)c4ccc(F)cc4)nn3)ccc2[nH]1` [[2-(4-fluorophenyl)-2-methylpropyl][6-(2-methylbenzimidazol-5-yl)pyridazin-3-yl]amine], the “Mean AC1.4” value was “B (B=1-10 uM)”.

As for `NC(=O)c1cccc(-c2ccc(NCCc3cc(F)cc(F)c3)nn2)c1`, the “Mean AC1.4” value is on record as “D (D=>20 uM)”.

`CS(=O)(=O)N1CC(CNc2ccc(-c3cccc(C(N)=O)c3)nn2)(c2ncccc2F)C1` [3-[6-({[3-(3-fluoro(2-pyridyl))-1-(methylsulfonyl)azetidin-3-yl]methyl}amino)pyridazin-3-yl]benzamide]: the “Mean AC1.4” value is reported as “D (D=>20 uM)”.

As for `CC(C)(CNc1ccc(C(=O)N2CCN(C(N)=O)CC2)nn1)c1ccc(F)cc1`, the “Mean AC1.4” value is “D (D=>20 uM)”.

As for `NC(=O)c1cccc(-c2ccc(NCCc3ccccn3)nn2)c1` [3-{6-[(2-(2-pyridyl)ethyl)amino]pyridazin-3-yl}benzamide], the “Mean AC1.4” value is “D (D=>20 uM)”.

Turning to `CC(C)(CNc1ccc(C2=CCNCC2)nn1)c1ccc(F)cc1` [[2-(4-fluorophenyl)-2-methylpropyl](6-(4-1,2,5,6-tetrahydropyridyl)pyridazin-3-yl)amine], the “Mean AC1.4” value is “B (B=1-10 uM)”.

As for `CC(C)(CNc1ccc(-c2cccc(C(N)=O)n2)nn1)c1ccc(F)cc1` [6-(6-{[2-(4-fluorophenyl)-2-methylpropyl]amino}pyridazin-3-yl)pyridine-2-carboxamide], the “Mean AC1.4” value is “B (B=1-10 uM)”.

Consider `NC(=O)c1cccc(-c2ccc(NCC3(C(=O)O)CCC3)nn2)c1` [1-({[6-(3-carbamoylphenyl)pyridazin-3-yl]amino}methyl)cyclobutane-carboxylic acid], for which the “Mean AC1.4” value is recorded as “D (D=>20 uM)”.

Turning to `CC(C)(CNc1ccc(-c2ccc(C(N)=O)cc2)nn1)c1ccc(F)cc1` [4-(6-{[2-(4-fluorophenyl)-2-methylpropyl]amino}pyridazin-3-yl)benzamide], the “Mean AC1.4” value is given as “B (B=1-10 uM)”.

As to `Nc1n[nH]c2ccc(-c3ccc(NCC(F)(F)c4ccc(F)cc4)nn3)cc12` [[6-(3-amino(1H-indazol-5-yl))pyridazin-3-yl][2,2-difluoro-2-(4-fluorophenyl)ethyl]amine], the “Mean AC1.4” value is given as “B (B=1-10 uM)”.

With `CC(C)(CNc1ccc(-c2ccc3[nH]nc(N)c3c2)nn1)c1ncco1` [[6-(3-amino(1H-indazol-5-yl))pyridazin-3-yl](2-methyl-2-(1,3-oxazol-2-yl)propyl)amine], the “Mean AC1.4” value is reported as “D (D=>20 uM)”.

In the case of `CC(C)(CNc1ccc(-c2ccc3onc(N)c3c2)nn1)c1ccc(F)cc1` [[6-(3-aminobenzo[3,4-d]isoxazol-5-yl)pyridazin-3-yl][2-(4-fluorophenyl)-2-methylpropyl]amine], the “Mean AC1.4” value was “B (B=1-10 uM)”.

Regarding `CC(C)(CNc1ccc(-c2ccc3[nH]nc(N)c3c2)nn1)c1ccc(F)cc1` [[6-(3-amino(1H-indazol-5-yl))pyridazin-3-yl][2-(4-fluorophenyl)-2-methylpropyl]amine], the “Mean AC1.4” value is “A (A=<1 uM)”.

Staying with this experiment, now noted: median AC1.4 class, procedure of Example 39.
On to `NC(=O)N1CC(c2ccc(NCC3(c4ncccc4F)CCC3)nn2)C1`, for which the “Mean AC1.4” value was “D (D=>20 uM)”.

`NC(=O)c1ccc(F)c(-c2ccc(NC3(c4ccc(OC(F)F)cn4)CCC3)nn2)c1`: the “Mean AC1.4” value is reported as “D (D=>20 uM)”.

On to `O=c1[nH]nc(-c2ccc(NCC3(c4ncccc4F)CCC3)nn2)[nH]1` [3-[6-({[(3-fluoro-2-pyridyl)cyclobutyl]methyl}ami-no)pyridazin-3-yl]-1,2,4-triazolin-5-one], for which the “Mean AC1.4” value is reported as “C (C=10-20 uM)”.

For `O=C(NCc1cnc(-c2ccc(NCC3(c4ncccc4F)CCC3)nn2)s1)c1ncc[nH]1` [N-({2-[6-({[(3-fluoro(2-pyridyl))cyclobutyl]methyl}ami-no)pyridazin-3-yl](1,3-thiazol-5-yl)}methyl)imidazol-2-ylcarboxamide], the “Mean AC1.4” value is “A (A=<1 uM)”.

For `N[C@@H](CO)C(=O)NCc1cnc(-c2ccc(NCC3(c4ncccc4F)CCC3)nn2)s1` [(2S)-2-amino-N-({2-[6-({[(3-fluoro(2-pyridyl))cyclobutyl]methyl}ami-no)pyridazin-3-yl](1,3-thiazol-5-yl)}methyl)-3-hydroxypropanamide], the “Mean AC1.4” value is “A (A=<1 uM)”.

Turning to `CS(=O)(=O)Nc1cccc(-c2ccc(NC3(c4ccc(F)cc4)CCC3)nn2)c1`, the “Mean AC1.4” value is recorded as “A (A=<1 uM)”.

As for `CS(=O)(=O)Nc1nccc(-c2ccc(NCC3(c4ncccc4F)CCC3)nn2)n1` [{4-[6-({[(3-fluoro(2-pyridyl))cyclobutyl]methyl}ami-no)pyridazin-3-yl]pyrimidin-2-yl}(methylsulfonyl)amine], the “Mean AC1.4” value is given as “D (D=>20 uM)”.

Take `Fc1ccc(C2(Nc3ccc(-c4ccncc4)nn3)CCC2)cc1` [[(4-fluorophenyl)cyclobutyl](6-(4-pyridyl)pyridazin-3-yl)amine]: the “Mean AC1.4” value is “B (B=1-10 uM)”.

`Fc1ccc(C2(Nc3ccc(-c4cccnc4OCC(F)(F)F)nn3)CCC2)cc1` [[(4-fluorophenyl)cyclobutyl]{6-[2-(2,2,2-trifluoroethoxy)(3-pyridyl)]pyridazin-3-yl}amine]: the “Mean AC1.4” value was “B (B=1-10 uM)”.

As to `CC(C)(Nc1ccc(-c2cccc(C#N)c2)nn1)c1ccccc1` [3-{6-[(1-methyl-1-phenylethyl)amino]pyridazin-3-yl}benzenecarbonitrile], the “Mean AC1.4” value is listed as “B (B=1-10 uM)”.

With `O=C(NCc1cnc(-c2ccc(NCC3(c4ncccc4F)CCC3)nn2)s1)c1cn[nH]c1` [N-({2-[6-({[(3-fluoro(2-pyridyl))cyclobutyl]methyl}ami-no)pyridazin-3-yl](1,3-thiazol-5-yl)}methyl)pyrazol-4-ylcarboxamide], the “Mean AC1.4” value is “A (A=<1 uM)”.

Take `O=C(NCc1cnc(-c2ccc(NCC3(c4ncccc4F)CCC3)nn2)s1)[C@@H]1CC(F)(F)CN1` [((2S)-4,4-difluoropyrrolidin-2-yl)-N-({2-[6-({[(3-fluoro(2-pyridyl))cyclobutyl]methyl}ami-no)pyridazin-3-yl](1,3-thiazol-5-yl)}methyl)carboxamide]: the “Mean AC1.4” value is recorded as “A (A=<1 uM)”.

With `CC(C)(Nc1ccc(-c2cccc(C(N)=O)c2)nn1)c1ccc(F)cc1` [3-(6-{[1-(4-fluorophenyl)-isopropyl]amino}pyridazin-3-yl)benzamide], the “Mean AC1.4” value is recorded as “B (B=1-10 uM)”.

`O=C(NCc1cnc(-c2ccc(NCC3(c4ncccc4F)CCC3)nn2)s1)c1cn[nH]n1` [2H-1,2,3-triazol-4-yl-N-({2-[6-({[(3-fluoro(2-pyridyl))cyclobutyl]methyl}ami-no)pyridazin-3-yl](1,3-thiazol-5-yl)}methyl)carboxamide]: the “Mean AC1.4” value was “A (A=<1 uM)”.

Regarding `O=C(CO)NCc1cnc(-c2ccc(NCC3(c4ncccc4F)CCC3)nn2)s1` [N-({2-[6-({[(3-fluoro(2-pyridyl))cyclobutyl]methyl}ami-no)pyridazin-3-yl](1,3-thiazol-5-yl)}methyl)-2-hydroxyacetamide], the “Mean AC1.4” value is “A (A=<1 uM)”.

As to `CC(C)(CNc1ccc(-c2cc(C(N)=O)ccc2F)nn1)c1ncccc1Cl` [3-(6-{[2-(3-chloro(2-pyridyl))-2-methylpropyl]amino}pyridazin-3-yl)-4-fluorobenzamide], the “Mean AC1.4” value is reported as “A (A=<1 uM)”.

The experiment is the same for the next values; noted with them: median AC1.4 reported as class; procedure of Example 39.
Regarding `CC(C)(C#N)c1cnc(-c2ccc(NCC3(c4ncccc4F)CCC3)nn2)s1` [2-{2-[6-({[(3-fluoro(2-pyridyl))cyclobutyl]methyl}ami-no)pyridazin-3-yl](1,3-thiazol-5-yl)}-2-methylpropanenitrile], the “Mean AC1.4” value is given as “D (D=>20 uM)”.

With `CC(=O)NCc1cccc(-c2ccc(NC[C@]3(c4ncccc4F)C[C@H](F)C3)nn2)c1` [N-({3-[6-({[3-fluoro-1-(3-fluoro(2-pyridyl))cyclobutyl]methyl}ami-no)pyridazin-3-yl]phenyl}methyl)acetamide], the “Mean AC1.4” value is “B (B=1-10 uM)”.

Regarding `CNC(=O)Cc1cnc(-c2ccc(NCC3(c4ncccc4Cl)CCC3)nn2)s1` [2-{2-[6-({[(3-chloro(2-pyridyl))cyclobutyl]methyl}ami-no)pyridazin-3-yl](1,3-thiazol-5-yl)}-N-methylacetamide], the “Mean AC1.4” value was “A (A=<1 uM)”.

`Cc1c(-c2ccc(NCC3(c4ncccc4F)CCC3)nn2)[nH][nH]c1=O` [3-[6-({[(3-fluoro(2-pyridyl))cyclobutyl]methyl}ami-no)pyridazin-3-yl]-4-methyl-3-pyrazolin-5-one]: the “Mean AC1.4” value is on record as “D (D=>20 uM)”.

In the case of `CN(Cc1cnc(-c2ccc(NCC3(c4ncccc4F)CCC3)nn2)s1)C(=O)C(C)(C)N` [2-amino-N-({2-[6-({[(3-fluoro(2-pyridyl))cyclobutyl]methyl}ami-no)pyridazin-3-yl](1,3-thiazol-5-yl)}methyl)-2-methyl-N-methylpropanamide], the “Mean AC1.4” value is recorded as “A (A=<1 uM)”.

As to `CNC(=O)c1cc2cc(-c3ccc(NC[C@]4(c5ncccc5F)C[C@H](F)C4)nn3)ccc2[nH]1` [{5-[6-({[3-fluoro-1-(3-fluoro(2-pyridyl))cyclobutyl]methyl}ami-no)pyridazin-3-yl]indol-2-yl}-N-methylcarboxamide], the “Mean AC1.4” value is given as “A (A=<1 uM)”.

As to `O=C(Nc1nccs1)c1ccc(NCC2(c3ncccc3F)CCC2)nn1` [[6-({[(3-fluoro(2-pyridyl))cyclobutyl]methyl}ami-no)pyridazin-3-yl]-N-(1,3-thiazol-2-yl)carboxamide], the “Mean AC1.4” value is listed as “A (A=<1 uM)”.

As to `NC(=O)Cc1cnc(-c2ccc(NC[C@]3(c4ncccc4Cl)C[C@H](F)C3)nn2)s1` [2-{2-[6-({[1-(3-chloro(2-pyridyl))-3-fluorocyclobutyl]methyl}ami-no)pyridazin-3-yl]-1,3-thiazol-5-yl}acetamide], the “Mean AC1.4” value is “B (B=1-10 uM)”.

As for `O=c1cc(-c2ccc(NCC3(c4ncccc4F)CCC3)nn2)nc2cc[nH]n12` [5-[6-({[(3-fluoro-2-pyridyl)cyclobutyl]methyl}ami-no)pyridazin-3-yl]-8-hydro-3-pyrazolino[1,5-a]pyrimidin-7-one], the “Mean AC1.4” value is “B (B=1-10 uM)”.
